Measured values: US20260209256A1, “PHOSPHINE OXIDE-BASED PHOTOINITIATORS” (Arkema France, priority 2022, published 2026)

Key:
[1] = Curing experiments: belt cure under LED lamp at 395 nm; settings: LED 395 nm, 50 μm film
Procedure: Testing Protocol: Formulations were prepared by combining all materials in the given proportions and then stirring at 30-40° C. until the samples were fully homogeneous; the formulations were then allowed to cool to 20° C. All components remained fully dissolved in the resin formulations throughout these experiments. For all experiments, the formulations were cured on Leneta Form 3N-31 gloss finish paper at 50 μm film thickness using a belt-cure instrument; the films were prepared using a K-bar. All films were then cured under an LED lamp at 395 nm at a belt speed of 10 m/min. The cure speed for each formulation was calculated from the number of passes under each lamp required to give complete surface cure (determined when light scratching of the surface of the film no longer left a mark) and depth cure (determined using the ‘thumb-twist’ test, where no visible mark is made when a thumb is pressed down firmly onto the coating with a twisting motion), and from the belt speed; the calculated cure speed (in m/min) is given in Tables 1A-1B as an average of 3 runs. Where cure speed was less than 0.3 m/min, the result was recorded as ‘No cure’.

[2] = UV PhotoDSC of nail gel top coat compositions
Procedure: Photo Differential Scanning Calorimetry (PhotoDSC) was used to measure the cure speed, heat generation during cure and heat flow measurements for the UV curable top coat compositions containing TPO, TPO-L and Photoinitiator 9 as shown in Table 2C below. PhotoDSC was measured using a TA instruments Q2000 DSC equipped with an EFOS A4000 Acticure UVNisible light curing system containing a 100 W Mercury lamp light source. The UV-light intensity was measured out of the sample window using an EIT UV power puck II radiometer prior to the experiment. Sample preparation for PhotoDSC occurred as follows: A Tzero aluminum reference pan and a Tzero aluminum sample pan were weighed. One drop of formulation (about 5-15 milligrams) was placed at the center of the sample pan and the mass was recorded. The two pans were placed in the DSC apparatus. The system was stabilized at 25° C. for 30 seconds under a continuous stream of nitrogen. An isothermal experiment was initiated and sample and reference pan were flooded with UVNisible light (320 to 450 nm, 190-210 mJ/cm^2) for two minutes. An exothermic peak, due to crosslinking, is recorded during the experiment. The cure speed is measured by determining the time it takes to reach the peak max while the lamp is turned on. The area under the peak is recorded as the heat flow value (J/g). The max temperature during cure is recorded as the temperature shown at the maximum peak during cure.

[3] = FTIR test: acrylate conversion; settings: FIG. 2A
Procedure: A Fourier Transform Infrared (FTIR) with an Attenuated Total Reflection (ATR) setup was used. All polymerization rate measurements were performed using Nicolet iS50 FT-IR Spectrometer from Thermo Scientific, equipped with a standard DLaTGS detector. A lamp holder for the ART platform of FTIR unit can be customized and printed from Arkema N3xtDimention® engineered resin N3D-TOUGH784 in order to ensure precisely fit of a 405 nm lamp AccuCure ULM-2-405 from Digital Light Labs. On the bottom of this lamp holder, a dry air channel is built in to allow air uniformly blowing over sample surface, the gas flow rate can be controlled over a rotameter. The LED light was manually triggered by Ultraviolet illumination & Measurement System. […] Measurements of acrylate conversion were taken at the height under the reference peak around 1720 cm^−1; the acrylate peak at approximately 1407 cm^−1 was also measured. Peak height was determined using the baseline technique where a baseline is chosen to be the two lowest points between 600 cm^−1 and 1800 cm^−1. The height under the peak and above the baseline was then determined. […]
The ratio of the acrylate height to the reference peak height were determined for both the liquid and the cured samples. Degree of cure or conversion, expressed as percentage reacted acrylate, was calculated from the equation below: […]

[4] = Stability by LED-FTIR analysis at 405 nm (accelerated ageing); format: physicochemical; settings: photoinitiator or formulation aged at 60° C. for 1 week, 10 mW, dry air, FIG. 6A/6B
Procedure: The cure speed of aged samples comprising Photoinitiator 11 vs Speedcure TPO was acquired in experimental formulations using LED-FTIR analysis. The photoinitiator was aged at 60° C. for 1 week, then made into formulation and directly compared to ageing the photoinitiator in formulation at 60° C. for 1 week.
LED FT-IR Analysis was conducted on a ThermoScientific Nicolet iS50 Ft-IR Spectrometer with a standard DLaTGS detector 2. A film applicator was used to spread the applied sample into a film of 3 mils thickness. For analysis all the spectra are normalized by using the 1727 cm^−1 (—C═O stretch) peak as reference. For acrylic monomers, the decrease in peak height of C═C peak at 1407 cm^−1 was used for measuring conversion versus time The degree of conversion of the monomers was calculated by measuring the peak height. The stability results for the formulations comprising Speedcure TPO are shown in FIG. 6A and stability the results for the formulations comprising Photoinitiator 11 are shown in FIG. 6B.

[5] = LED-DSC test of 3D printing curable compositions
Procedure: A photo differential scanning calorimetry (DSC) with a customized 405 nm LED lamp setup was used. All photopolymerization rate measurement were performed using a Q2000 DSC unit from TA Instruments. A lamp holder for the DSC unit can be customized and printed from Arkema N3xtDimention® engineered resin N3D-TOUGH784 in order to ensure precisely fit of a 405 nm lamp AccuCure ULM-2-405 from Digital Light Labs. The LED light was automatically triggered by connecting the “Event” outlet of the DSC unit to an Accure Photo Rheometer Ultraviolet Illumination & Measurement System. LED light exposure can be programed by using “Event” on or off from Photo DSC software, but the intensity of light can be preset from the Accure Photo Rheometer Ultraviolet Illumination & Measurement System. For measurement, approximate 10 mg liquid sample was placed at the center of a T130522 DSC Tzero pan, cured by exposing it to 50 mW/cm^2 of 405 nm LED light for 0.3 minutes under a 50 mL/min N2 flow rate and 40° C. The resulting heat flow (W/g) curve was collected to analyze maximum heat flow peak value and maximum peak time, and listed in Table 3A.

[6] = Stability in inkjet formulations, LED curing 395 nm; format: physicochemical; settings: cyan ink, 6 μm film; FIG. 7B
Procedure: Resins and photoinitiators were mixed at the target weight ratio before gently stirring using magnetic stirrers at 30-40° C. for 3 hours. Solubility was checked by eye to confirm full dissolution. Curing results at target film weight, were checked by lightly scratching for surface curing and compressed thumb twist for depth curing. Average curing speed was calculated using the belt speed divided by the passing number recorded when full cured resin was achieved. For practical purposes, curing speed less than 0.3 m/min was categorised as “No cure”. Duplicate curing was performed for the same formulation, average curing speed was used for final comparisons. […] Comparison of the initial cure speed vs the cure speed of aged samples was directly compared. […] Film weights were 6 μm.

[7] = Stability in inkjet formulations, mercury curing; format: physicochemical; settings: cyan ink, same phosphine oxide w/w %, 6 μm film; FIG. 7A
Procedure: Resins and photoinitiators were mixed at the target weight ratio before gently stirring using magnetic stirrers at 30-40° C. for 3 hours. Solubility was checked by eye to confirm full dissolution. Curing results at target film weight, were checked by lightly scratching for surface curing and compressed thumb twist for depth curing. Average curing speed was calculated using the belt speed divided by the passing number recorded when full cured resin was achieved. For practical purposes, curing speed less than 0.3 m/min was categorised as “No cure”. Duplicate curing was performed for the same formulation, average curing speed was used for final comparisons.
Cure speed of samples was checked at T=0, then samples were aged in an oven at 60° C. for 2 weeks before reassessing cure speed. Comparison of the initial cure speed vs the cure speed of aged samples was directly compared. Lamp system: the mercury lamp was at an intensity of 50%, with belt speed 10 m/min The LED lamp was set at 395 nm, with a lamp intensity of 70%, at belt speed 20 m/min

[8] = 8% w/w photoinitiator in 7:3 w/w bisphenol A ethoxylate diacrylate/tripropylene glycol diacrylate, average of 3 runs
[9] = same active phosphine oxide concentration (given Wt %) in 7:3 w/w bisphenol A ethoxylate diacrylate/tripropylene glycol diacrylate
[10] = compositions containing 2 wt % photoinitiator
[11] = compositions containing 4 wt % photoinitiator

SMILES	Cure speed (m/min) Depth cure [1, 8] [m/min]	Cure speed (m/min) Surface cure [1, 8]	Cure speed (m/min) Depth cure [1, 9] [m/min]	Cure speed (m/min) Surface cure [1, 9]	time to peak max [2, 10] [min]	time to peak max [2, 11] [min]	cure speed in formulations at the same equivalent of phosphine oxide [3]	stability: cure speed after accelerated ageing [4]	cure speed in formulations at the same equivalent of phosphine oxide [5]	initial curing under 395 nm LED [6]	initial curing performance under mercury lamp [7]
CCCCNC(=O)C(CC(=O)c1c(C)cc(C)c(C(=O)P(=O)(c2ccccc2)c2ccccc2)c1C)N1CCN(C)CC1 (single isomer, unassigned) [Photoinitiator 4]	5.0	No cure (Where cure speed was less than 0.3 m/min, the result was recorded as ‘No cure’)	5.0	1.6 m/min	–	–	–	–	–	–	–
CCCCNC(=O)C(CC(=O)c1c(C)cc(C)c(C(=O)P(=O)(c2ccccc2)c2ccccc2)c1C)N1CCOCC1 (single isomer, unassigned) [Photoinitiator 3]	3.9	No cure (Where cure speed was less than 0.3 m/min, the result was recorded as ‘No cure’)	5.0	1.7 m/min	–	–	–	–	–	–	–
CCOP(=O)(C(=O)c1c(C)cc(C)cc1C)c1ccccc1 (stereo not shown) [Speedcure TPO-L, Ethyl (2,4,6-trimethylbenzoyl)phenyl phosphinate]	–	–	–	–	0.06	0.06	–	–	–	–	–
Cc1cc(C)c(C(=O)P(=O)(c2ccccc2)c2ccccc2)c(C)c1 [SpeedCure TPO, 2,4,6-trimethylbenzoyl diphenyl phosphine oxide]	5.6	2.2 m/min	5.6	2.2 m/min	0.5	0.06	Precursor 4<Photoinitiator 6<TPO	larger reduction in cure speed than Photoinitiator 11	Precursor 4<Photoinitiator 6<TPO	–	–
Cc1cc(C)c(C(=O)P(=O)(C(=O)c2c(C)cc(C)cc2C)c2ccccc2)c(C)c1 [Speedcure BPO, bis-(2,4,6-trimethylbenzoyl)phenyl phosphine oxide]	–	–	–	–	–	–	–	–	–	best curing results	closely followed
CCCCNC(=O)/C=C\C(=O)c1c(C)cc(C)c(C(=O)P(=O)(c2ccccc2)c2ccccc2)c1C [Precursor 3]	1.8	No cure (Where cure speed was less than 0.3 m/min, the result was recorded as ‘No cure’)	1.8	No cure (Where cure speed was less than 0.3 m/min, the result was recorded as ‘No cure’)	–	–	–	–	–	–	–
